Results reported in patent US20220096602A1, “LIF THERAPY FOR INDUCING INTESTINAL EPITHELIAL CELL REGENERATION” (Rutgers, the State University of New Jersey, priority 2019, published 2022).

Legend:
[1] = test system: LIF KO intestinal organoids; experiment: Intestinal organoid culture: growth and proliferation of LIF KO organoids; type: cell-based, mouse; settings: for stem cell number in LIF KO organoids: organoids from LIF KO, Lgr5-GFP mouse crypts; for growth and proliferation of LIF KO organoids: Stattic 2 μM, SB242235 1 μM
Method: (§1) Crypt isolation and organoid culture were performed as described previously (Nan Gao's paper, 2015, Development). Crypts were isolated from the mouse small intestine. 150-200 crypts were embedded in growth factor-reduced Matrigel and cultured with mouse ENR organoid culture medium containing 1×B27 (Life Tech Gibco), 1×N2 (Life Tech Gibco), 1 mM N-acetylcysteine (Sigma), 50 ng/ml of EGF (Life Technology), 100 ng/ml of Noggin (R&D System), and 1 μg/ml of R-spondin 1 (R&D system). Recombinant mouse LIF (Millipore), wortmannin (Cell Signaling Technology) and CHIR99021 (Stemgent) were used for organoid treatment.
(§2) The size organoid was evaluated by quantify surface area of horizontal cross section of organoids acquired from multiple random non-overlapping pictures by an Olympus inverted microscope using ImageJ software. The vertical direction of expansion was not included in the calculations. n≥30/group. The percentages of budding organoids were analyzed by light microscopy at different days during organoid culture. n≥100/group.
(§3) IF staining of organoids was performed as previously described (Gao and Kaestner, 2010). In brief, organoids were fixed with 4% paraformaldehyde for 10 min, treated with 0.5% TritonX-100 for 10 min and blocked with 10% goat serum in IF buffer (0.1% BSA, 0.2% Triton X100, 0.05% Tween-20, 0.05% NaN3 in PBS) for 2 hours. Organoids were incubated with anti-Ki67 (Abcam, ab16667, 1:200 dilution) and anti-GFP (Abcam, ab6673, 1:1000 dilution) antibodies overnight at room temperature and then incubated with Alexa Fluor® 555 Goat Anti-Rabbit IgG (H+L) (Invitrogen, 1:800 dilution) and Alexa Fluor® 488 Donkey Anti-Goat IgG (H+L) (Invitrogen, 1:200 dilution), respectively to detect Ki67 and Lgr5-EGFP. Nuclei were stained with 4′, 6-diamidino-2-phenylindole (DAPI; Vector).

[2] = test system: WT intestinal organoids; experiment: Intestinal organoid culture: growth and proliferation of WT organoids; type: cell-based, mouse; settings: for stem cell number in WT organoids: organoids from WT, Lgr5-GFP mouse crypts; for growth and proliferation of WT organoids: Stattic 2 μM, SB242235 1 μM; for effect on ISC functions in WT organoids: blocking STAT3 or MAPK activity
Method: as §1, §2, §3

[3] = test system: β-catenin target genes Axin2, Ascl1, Olfm4 and Lgr5; experiment: Quantitative real-time PCR of β-catenin target genes in organoids; type: cell-based, mouse; settings: normalized with β-actin
Method: Total RNA from mice small intestine tissues or organoids was prepared by using an RNeasy kit (Qiagen). Quantitative real-time PCR assays were performed as described previously. The expression of genes was normalized with the β-actin gene. Data was obtained from 5 independent biological samples with 3 technical replicates. To investigate whether LIF regulates ISC function through upregulating the AKT signaling, WT and LIF KO organoids were treated with Wortmannin, a PI3K inhibitor that inhibits the PI3K/Akt signaling, and Capivasertib, a specific AKT inhibitor (31, 32). […] Further, we directly examined the effects of Capivasertib and SC79 on β-catenin activity by measuring the mRNA levels of its target genes in WT and LIF KO organoids. […] We further treated organoids formed by WT or LIF KO; Lgr5-GFP mouse crypts with Wortmannin, Capivasertib or SC79. […] We further examined whether blocking GSK3β can improve the growth of LIF KO organoids.

[4] = test system: intestinal epithelium; experiment: Regeneration of intestinal epithelium after irradiation in inducible LIF-tgflox/+/Cre-ERT2 mice; type: in vivo, mouse; settings: tamoxifen-induced LIF expression; i.p. 3 days before 12 Gy IR; 72 h after irradiation
Method: Eight-twelve-week-old male and female LIF-tg^flox/+/Cre-ERT2 mice were injected (i.p.) with tamoxifen ([…] body weight for male and […] body weight for female) to induce LIF expression 3 days before irradiation (D-3). Age- and gender-matched LIF-tg^flox/+/Cre-ERT2 mice were injected with corn oil as control on D-3. On D0 mice were subject to 12 Gy-whole-body irradiated. Mouse intestine tissue was collected at 72 h after irradiation (D3). The levels of Ki67 in intestinal epithelium were determined by immunohistochemistry (IHC) staining. n=6 in Tamoxifen treated group, n=4 in control group.

[5] = target: T1, gp130 (LIF:LIFR:gp130 complex) (Homo sapiens, UniProt P40189+P42702); settings: after binding to LIFR; cited from earlier work
T1 sequence (P40189 23-918): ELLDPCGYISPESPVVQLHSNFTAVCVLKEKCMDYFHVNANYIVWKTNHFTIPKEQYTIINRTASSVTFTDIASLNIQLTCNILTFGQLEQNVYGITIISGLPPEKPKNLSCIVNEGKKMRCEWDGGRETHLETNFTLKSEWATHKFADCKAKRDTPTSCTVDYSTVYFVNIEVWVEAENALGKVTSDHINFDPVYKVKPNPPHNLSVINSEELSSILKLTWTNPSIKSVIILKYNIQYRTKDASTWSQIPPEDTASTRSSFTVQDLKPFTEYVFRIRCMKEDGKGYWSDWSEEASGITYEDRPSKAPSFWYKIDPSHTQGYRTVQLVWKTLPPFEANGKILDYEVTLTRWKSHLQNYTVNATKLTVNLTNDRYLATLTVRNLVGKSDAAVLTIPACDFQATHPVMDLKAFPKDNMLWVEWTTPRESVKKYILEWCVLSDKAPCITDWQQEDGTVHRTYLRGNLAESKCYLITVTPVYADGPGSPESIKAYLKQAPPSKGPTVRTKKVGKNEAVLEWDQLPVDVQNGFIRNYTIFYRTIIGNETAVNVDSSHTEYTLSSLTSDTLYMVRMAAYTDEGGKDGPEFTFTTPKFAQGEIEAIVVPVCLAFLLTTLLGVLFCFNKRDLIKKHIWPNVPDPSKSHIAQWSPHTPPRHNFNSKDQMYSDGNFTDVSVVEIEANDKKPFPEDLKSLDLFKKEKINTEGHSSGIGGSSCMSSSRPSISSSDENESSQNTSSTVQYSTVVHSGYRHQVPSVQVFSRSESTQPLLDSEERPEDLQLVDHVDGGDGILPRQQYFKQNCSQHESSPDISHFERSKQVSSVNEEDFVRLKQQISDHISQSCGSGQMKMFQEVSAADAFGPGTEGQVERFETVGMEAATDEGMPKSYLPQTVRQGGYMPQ
T1 sequence (P42702 45-1097): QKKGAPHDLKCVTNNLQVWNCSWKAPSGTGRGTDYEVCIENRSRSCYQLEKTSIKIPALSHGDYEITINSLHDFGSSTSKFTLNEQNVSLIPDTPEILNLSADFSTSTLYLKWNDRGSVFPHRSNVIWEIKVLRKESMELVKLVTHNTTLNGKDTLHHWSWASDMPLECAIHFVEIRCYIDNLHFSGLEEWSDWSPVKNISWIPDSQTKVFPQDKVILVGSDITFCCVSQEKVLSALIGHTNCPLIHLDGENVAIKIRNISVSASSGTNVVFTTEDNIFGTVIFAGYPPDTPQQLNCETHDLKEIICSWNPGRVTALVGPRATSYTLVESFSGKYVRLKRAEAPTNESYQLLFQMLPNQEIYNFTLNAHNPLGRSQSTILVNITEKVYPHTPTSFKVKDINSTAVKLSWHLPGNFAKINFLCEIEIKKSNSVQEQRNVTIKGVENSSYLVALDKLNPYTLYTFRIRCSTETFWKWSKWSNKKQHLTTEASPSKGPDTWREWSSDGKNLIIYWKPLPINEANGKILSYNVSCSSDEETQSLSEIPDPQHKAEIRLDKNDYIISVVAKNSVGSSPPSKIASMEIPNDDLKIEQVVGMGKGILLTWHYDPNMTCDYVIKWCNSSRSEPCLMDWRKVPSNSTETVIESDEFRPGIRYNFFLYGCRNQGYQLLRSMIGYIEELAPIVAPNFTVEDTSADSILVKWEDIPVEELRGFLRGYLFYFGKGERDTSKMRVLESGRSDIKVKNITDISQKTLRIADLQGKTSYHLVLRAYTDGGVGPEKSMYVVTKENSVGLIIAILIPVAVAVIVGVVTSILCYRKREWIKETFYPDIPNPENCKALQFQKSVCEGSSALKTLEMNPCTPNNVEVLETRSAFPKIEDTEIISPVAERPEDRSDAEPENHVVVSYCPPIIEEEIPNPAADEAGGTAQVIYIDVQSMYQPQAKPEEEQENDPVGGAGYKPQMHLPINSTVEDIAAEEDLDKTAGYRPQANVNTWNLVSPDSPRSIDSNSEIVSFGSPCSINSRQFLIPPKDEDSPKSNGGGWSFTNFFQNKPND

[6] = target: T2, LIF receptor (LIFR) (Homo sapiens, UniProt P42702); settings: cited from earlier work
T2 sequence (P42702 45-1097): T1 sequence (P42702 45-1097)

[7] = patients with advanced cancers; cited from earlier work
[8] = single s.c. dose, up to doses of 4 μg/kg, healthy volunteers; cited from earlier work

Question: For Cc1c[nH]c(-c2cnc(NCCNc3ccc(C#N)cn3)nc2-c2ccc(Cl)cc2Cl)n1 [CHIR99021], which “growth, cell proliferation and stem cell number of LIF KO organoids” value ([1]; CHIR99021 3 μM) is on record?
Answer: greatly improved

Question: What about the “growth, cell proliferation and stem cell number of WT organoids” value ([2]; CHIR99021 3 μM, compared with LIF KO organoids) of the same compound?
Answer: much less pronounced effect

Question: What does the source list for NC1(C(=O)N[C@@H](CCO)c2ccc(Cl)cc2)CCN(c2ncnc3[nH]ccc23)CC1 [Capivasertib]?
Answer: rescue effect of recombinant LIF on the growth of LIF KO organoids ([1]; inhibitor 1 μM with LIF 50 ng/ml): largely abolished; inhibitory effects on organoid growth and cell proliferation in LIF KO organoids ([1]; inhibitor 1 μM, compared with WT organoids): much less pronounced; stem cell number in LIF KO organoids [1]: much less pronounced inhibitory effect; growth of WT organoids and cell proliferation (surface area, organoid formation, Ki67+ cells) ([2]; inhibitor 1 μM, WT organoids): greatly inhibited; stem cell number in WT organoids [2]: greatly decreased; mRNA levels of Axin2, Ascl1, Olfm4 and Lgr5 in LIF KO organoids [3]: less pronounced effect; mRNA levels of Axin2, Ascl1, Olfm4 and Lgr5 in WT organoids [3]: significantly decreased

Question: For COc1nccc(-c2c(-c3ccc(F)cc3)ncn2C2CCNCC2)n1 [SB242235], which “growth and proliferation of LIF KO organoids” value [1] is on record?
Answer: did not have a significant effect

Question: And the “growth and proliferation of WT organoids” value [2]?
Answer: did not have a significant effect

Question: And the “effect on ISC functions in WT organoids” value [2]?
Answer: no obvious effect

Question: What does the source list for CCOC(=O)C1=C(N)Oc2ccc(Cl)cc2C1C(C#N)C(=O)OCC (stereo not shown) [SC79]?
Answer: growth and cell proliferation of LIF KO organoids ([1]; SC79 5 μM): greatly improved; stem cell number in LIF KO organoids [1]: greatly increased; growth and cell proliferation of WT organoids ([2]; SC79 5 μM, compared with LIF KO organoids): less pronounced effect; stem cell number in WT organoids [2]: less pronounced effect; mRNA levels of Axin2, Ascl1, Olfm4 and Lgr5 in LIF KO organoids [3]: greatly increased; mRNA levels of Axin2, Ascl1, Olfm4 and Lgr5 in WT organoids [3]: less pronounced effect

Question: With O=[N+]([O-])c1ccc2c(c1)S(=O)(=O)C=C2 [Stattic] as the compound, how does the “growth and proliferation of LIF KO organoids” value [1] read?
Answer: did not have a significant effect

Question: And the “growth and proliferation of WT organoids” value [2]?
Answer: did not have a significant effect

Question: And the “effect on ISC functions in WT organoids” value [2]?
Answer: very limited effect

Question: For CC/C(=C(\c1ccccc1)c1ccc(OCCN(C)C)cc1)c1ccccc1 [tamoxifen], which “intestinal crypt regeneration (viable crypts), higher than controls” value [4] is on record?
Answer: ~50%

Question: Which “affinity of functional signaling complex with gp130” value [5] does the source give for “human LIF: Human canonical LIF, accession number P15018, SEQ ID NO: 1” here?
Answer: picomolar

Question: And the “affinity of binding to LIFR” value [6]?
Answer: low nanomolar

Question: Which “adverse effects on blood progenitor cells” value [7] does the source give for “rhLIF: Emfilermin is the term used for rhLIF produced in Escherichia coli” here?
Answer: no adverse effects

Question: And the “hematopoietic recovery after chemotherapy” value [7]?
Answer: normal

Question: What about the safety of administration [7] of the same compound?
Answer: safely administered

Question: What about the safety and tolerability [8] of the same compound?
Answer: safe and well tolerated
